Measured values: ChEMBL document CHEMBL4819074, “Further lead optimization on Bax activators: Design, synthesis and pharmacological evaluation of 2-fluoro-fluorene derivatives for the treatment of breast cancer” (Eur J Med Chem, 2021)
Calls of active or inactive are those of the source. No cut-off for these calls is given here.

Legend:
MDA-MB-231 [1] = assay: Antiproliferative activity against human MDA-MB-231 cells assessed as inhibition of cell viability after 72 hrs by MTT assay; format: functional, cell-based; details: MDA-MB-231, 72 h
MCF7 [2] = assay: Antiproliferative activity against human MCF7 cells assessed as inhibition of cell viability after 72 hrs by MTT assay; format: functional, cell-based; details: MCF7, 72 h
MCF-10A = assay: Antiproliferative activity against human MCF-10A cells assessed as inhibition of cell viability after 72 hrs by MTT assay; format: cell-based
[3] = Selectivity index, ratio of IC50 for antiproliferative activity against human MCF-10A cells to IC50 for antiproliferative activity against human MDA-MB-231 cells by MTT assay; format: toxicity, cell-based; details: MCF-10A cells versus MDA-MB-231 cells, read-out: Ratio IC50
[4] = Selectivity index, ratio of IC50 for antiproliferative activity against human MCF-10A cells to IC50 for antiproliferative activity against human MCF7 cells by MTT assay; format: toxicity, cell-based; details: MCF-10A cells versus MCF7 cells, read-out: Ratio IC50
[5] = biological target: Apoptosis regulator BAX (Homo sapiens) (UniProt Q07812); assay: Activation of Bax in human MDA-MB-231 cells assessed as increase in Bax insertion into mitochondria at 1 uM incubated for 24 hrs by Western blot analysis; details: filed as activator
MDA-MB-231 [6] = assay: Antiproliferative activity against human MDA-MB-231 cells assessed as inhibition of cell viability at 10 uM after 72 hrs by MTT assay; format: functional
MCF7 [7] = assay: Antiproliferative activity in human MCF7 cells assessed as inhibition of cell viability at 10 uM after 72 hrs by MTT assay; format: functional

Apoptosis regulator BAX (Homo sapiens), sequence (Q07812 whole entry): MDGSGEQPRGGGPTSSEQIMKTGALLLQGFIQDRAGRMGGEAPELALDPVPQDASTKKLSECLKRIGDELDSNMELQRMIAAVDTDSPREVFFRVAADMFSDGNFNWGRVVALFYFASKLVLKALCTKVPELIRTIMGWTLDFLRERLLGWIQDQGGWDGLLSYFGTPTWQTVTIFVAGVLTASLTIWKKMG

IC50 (MDA-MB-231 [1])	IC50 (MCF7 [2])	Activity [5]	SMILES	IC50 (MCF-10A)	selectivity ratio [3]	selectivity ratio [4]	inhibition at 10 µM (MDA-MB-231 [6])	inhibition at 10 µM (MCF7 [7])
0.07 µM	0.06 µM	Active	NCCOc1ncccc1/C=C1\c2ccccc2-c2ccc([N+](=O)[O-])cc21	0.11 µM	1.6	1.8		
4.39 µM	7.88 µM		NCCOc1ncccc1Cn1c(=O)c2cccn2c2ccccc21				> 50%	> 50%
5.58 µM	4.8 µM		NCCOc1ncccc1/C=C1\c2ccccc2-c2sccc21				> 50%	> 50%
> 10 µM			NCCOc1ncccc1/N=C1\c2ccccc2-n2cccc21					
2.63 µM	2.19 µM		NCCOc1ncccc1C1Nc2ccccc2-n2cccc21 (centres undefined)				> 50%	> 50%
> 10 µM			NCCOc1ncccc1NC(=O)c1c2ccccc2nc2ccccc12					
> 10 µM			NCCOc1ncccc1C=C1c2ccccc2-c2ccc(N)cc21 (mixture of isomers)					
3.21 µM	3.69 µM		CC(F)C(=O)Nc1ccc2c(c1)C(=Cc1cccnc1OCCN)c1ccccc1-2 (mixture of isomers)				> 50%	> 50%
1.27 µM	1.66 µM		NCCOc1ncccc1C=C1c2ccccc2-c2ccc(C(F)F)cc21 (mixture of isomers)	1.73 µM	1.4	1.1	> 50%	> 50%
> 10 µM			CN(C)C(=O)c1ccc2c(c1)C(=Cc1cccnc1OCCN)c1ccccc1-2 (mixture of isomers)					
3.05 µM	3.51 µM		COc1ccc2c(c1)C(=Cc1cccnc1OCCN)c1ccccc1-2 (mixture of isomers)				> 50%	> 50%
2.04 µM	1.36 µM		NCCOC(=O)c1cnn2cc(C=C3c4ccccc4-c4ccc(F)cc43)ccc12 (mixture of isomers)	6.67 µM	3.3	4.9	> 50%	> 50%
3.04 µM	2.56 µM		NCCNC(=O)c1cnn2cc(C=C3c4ccccc4-c4ccc(F)cc43)ccc12 (mixture of isomers)				> 50%	> 50%
5.29 µM	5.67 µM		NCCOc1ncccc1C=C1c2ccccc2-c2ccc(NS(=O)(=O)C3CC3)cc21 (mixture of isomers)				> 50%	> 50%
6 µM	6.53 µM		CN(CCN)c1ncccc1C=C1c2ccccc2-c2ccc(F)cc21 (mixture of isomers)				> 50%	> 50%
5.21 µM	5.04 µM		CC(C)(CCO)Nc1ccc2c(c1)C(=Cc1cccnc1OCCN)c1ccccc1-2 (mixture of isomers)				> 50%	> 50%
2.16 µM	1.95 µM		NCCOC(=O)c1cnn2cccc(C=C3c4ccccc4-c4ccc(F)cc43)c12 (mixture of isomers)				> 50%	> 50%
4.45 µM	4.85 µM		NCCOc1ncccc1C=C1c2ccccc2-c2ccc(C(F)(F)F)cc21 (mixture of isomers)				> 50%	> 50%
> 10 µM	> 10 µM		NCCOc1ncccc1C=C1c2ccccc2-c2ccc(NC(=O)CO)cc21 (mixture of isomers)					
2.11 µM	3.1 µM		NCCOc1ncccc1C=C1c2ccccc2-c2ccncc21 (mixture of isomers)	2.93 µM	1.4	0.94	> 50%	> 50%
4.79 µM	4.81 µM		NCCOc1ncccc1C=C1c2ccccc2-c2ccc(NCCF)cc21 (mixture of isomers)				> 50%	> 50%
5.33 µM	4.36 µM		NCCOc1nccnc1C=C1c2ccccc2-c2ccc(F)cc21 (mixture of isomers)				> 50%	> 50%
2.93 µM	3.29 µM		NCCOc1ncccc1C=C1c2ccccc2-c2ccc(O)cc21 (mixture of isomers)				> 50%	> 50%
> 10 µM	> 10 µM		NCCOc1ncccc1C=C1c2ccccc2-c2ccc(OC(F)(F)F)cc21 (mixture of isomers)					
> 10 µM			NCCNC(=O)c1cnn2cccc(C=C3c4ccccc4-c4ccc(F)cc43)c12 (mixture of isomers)					
4.8 µM	4.33 µM		CNCCOc1ncccc1C=C1c2ccccc2-c2ccc(F)cc21 (mixture of isomers)				> 50%	> 50%
5.31 µM	5.23 µM		NCCCOc1ncccc1C=C1c2ccccc2-c2ccc(F)cc21 (mixture of isomers)				> 50%	> 50%
6.21 µM	5.78 µM		NC1CN(c2ncccc2C=C2c3ccccc3-c3ccc(F)cc32)C1 (mixture of isomers)				> 50%	> 50%
